The text below walks through data of the NIST ThermoML archive (doi:10.1016/j.fluid.2018.09.024).

SMILES strings stand for the structures. ± gives the expanded uncertainty stated by the source.

The nature of this series: activity coefficient (dimensionless); of the first substance listed, at infinite dilution; xn = mol fraction of the nth substance listed. As to conditions: 101.33 kPa, Liquid, Chromatography, x1 = 0.

For the molecule `Cc1cccc(C)c1` [1,3-dimethylbenzene] + CCCCCCCCCCCC[N+](C)(C)CCOc1ccccc1.N#C[N-]C#N, the activity coefficient stood at 1.38 ± 0.09 (328.15 K); 1.44 ± 0.09 (338.15 K); 1.5 ± 0.1 (348.15 K); 1.56 ± 0.1 (358.15 K); 1.61 ± 0.11 (368.15 K); 1.66 ± 0.11 (378.15 K).
`CCCC(C)=O` [pentan-2-one] + CCCCCCCCCCCC[N+](C)(C)CCOc1ccccc1.O=S(=O)([N-]S(=O)(=O)C(F)(F)F)C(F)(F)F: the activity coefficient (318.15 K) was determined as 0.386 ± 0.033; the activity coefficient (328.15 K) was found to be 0.41 ± 0.034; the activity coefficient (338.15 K) worked out at 0.434 ± 0.035; the activity coefficient (348.15 K) turned out to be 0.458 ± 0.036; the activity coefficient (358.15 K) was found to be 0.481 ± 0.037; the activity coefficient (368.15 K) amounted to 0.503 ± 0.038.
With `CC#N` [acetonitrile] + CCCCCCCCCCCC[N+](C)(C)CCOc1ccccc1.O=S(=O)([N-]S(=O)(=O)C(F)(F)F)C(F)(F)F, the activity coefficient reads like this: (318.15 K) 0.473 ± 0.037; (328.15 K) 0.489 ± 0.037; (338.15 K) 0.506 ± 0.038; (348.15 K) 0.523 ± 0.039; (358.15 K) 0.539 ± 0.039; (368.15 K) 0.555 ± 0.04.
As to `C#CCCC` [1-pentyne] + CCCCCCCCCCCC[N+](C)(C)CCOc1ccccc1.O=S(=O)([N-]S(=O)(=O)C(F)(F)F)C(F)(F)F, the activity coefficient is 1.07 ± 0.07 (318.15 K); 1.13 ± 0.07 (328.15 K); 1.19 ± 0.08 (338.15 K); 1.25 ± 0.08 (348.15 K); 1.32 ± 0.09 (358.15 K); 1.39 ± 0.09 (368.15 K).
For `C=Cc1ccccc1` [styrene] + CCCCCCCCCCCC[N+](C)(C)CCOc1ccccc1.O=S(=O)([N-]S(=O)(=O)C(F)(F)F)C(F)(F)F, the activity coefficient is, setting by setting: (318.15 K) 0.632 ± 0.044; (328.15 K) 0.672 ± 0.046; (338.15 K) 0.711 ± 0.047; (348.15 K) 0.75 ± 0.049; (358.15 K) 0.788 ± 0.051; (368.15 K) 0.83 ± 0.05.
With `O` [water] + CCCCCCCCCCCC[N+](C)(C)CCOc1ccccc1.N#C[N-]C#N, the activity coefficient (328.15 K) is 0.467 ± 0.036; the activity coefficient (338.15 K) worked out at 0.479 ± 0.037; the activity coefficient (348.15 K) amounted to 0.489 ± 0.037; the activity coefficient (358.15 K) came to 0.5 ± 0.04; the activity coefficient (368.15 K) turned out to be 0.51 ± 0.038; the activity coefficient (378.15 K) is 0.52 ± 0.039.
Turning to `C=CCCCCCC` [oct-1-ene] + CCCCCCCCCCCC[N+](C)(C)CCOc1ccccc1.N#C[N-]C#N, the activity coefficient is, setting by setting: (328.15 K) 4.87 ± 0.33; (338.15 K) 4.98 ± 0.34; (348.15 K) 5.09 ± 0.35; (358.15 K) 5.2 ± 0.35; (368.15 K) 5.29 ± 0.36; (378.15 K) 5.38 ± 0.37.
For the molecule `C1=CCCCC1` [cyclohexene] + CCCCCCCCCCCC[N+](C)(C)CCOc1ccccc1.N#C[N-]C#N, the activity coefficient reads like this: (328.15 K) 2.16 ± 0.15; (338.15 K) 2.19 ± 0.15; (348.15 K) 2.22 ± 0.15; (358.15 K) 2.26 ± 0.15; (368.15 K) 2.29 ± 0.16; (378.15 K) 2.31 ± 0.16.
Consider `CCCCO` [butan-1-ol] + CCCCCCCCCCCC[N+](C)(C)CCOc1ccccc1.N#C[N-]C#N, for which the activity coefficient is 0.463 ± 0.036 (328.15 K); 0.473 ± 0.037 (338.15 K); 0.483 ± 0.037 (348.15 K); 0.494 ± 0.038 (358.15 K); 0.504 ± 0.038 (368.15 K); 0.514 ± 0.038 (378.15 K).
Take `CCCOCCC` [dipropyl ether] + CCCCCCCCCCCC[N+](C)(C)CCOc1ccccc1.N#C[N-]C#N: the activity coefficient is, setting by setting: (328.15 K) 3.36 ± 0.23; (338.15 K) 3.46 ± 0.24; (348.15 K) 3.54 ± 0.24; (358.15 K) 3.61 ± 0.25; (368.15 K) 3.68 ± 0.25; (378.15 K) 3.76 ± 0.26.
Take `CCCCCO` [pentan-1-ol] + CCCCCCCCCCCC[N+](C)(C)CCOc1ccccc1.N#C[N-]C#N: the activity coefficient stood at 0.477 ± 0.037 (328.15 K); 0.491 ± 0.037 (338.15 K); 0.505 ± 0.038 (348.15 K); 0.517 ± 0.039 (358.15 K); 0.53 ± 0.039 (368.15 K); 0.542 ± 0.04 (378.15 K).
Consider `C=CCCCCC` [1-heptene] + CCCCCCCCCCCC[N+](C)(C)CCOc1ccccc1.O=S(=O)([N-]S(=O)(=O)C(F)(F)F)C(F)(F)F, for which the activity coefficient is 2.5 ± 0.17 (318.15 K); 2.59 ± 0.18 (328.15 K); 2.67 ± 0.18 (338.15 K); 2.76 ± 0.19 (348.15 K); 2.84 ± 0.19 (358.15 K); 2.92 ± 0.2 (368.15 K).
Consider `CCOCC` [diethyl ether] + CCCCCCCCCCCC[N+](C)(C)CCOc1ccccc1.O=S(=O)([N-]S(=O)(=O)C(F)(F)F)C(F)(F)F, for which the activity coefficient reads like this: (318.15 K) 1.06 ± 0.07; (328.15 K) 1.12 ± 0.07; (338.15 K) 1.18 ± 0.08; (348.15 K) 1.24 ± 0.08; (358.15 K) 1.3 ± 0.08; (368.15 K) 1.36 ± 0.09.
For the molecule `CCCCCCCCC` [nonane] + CCCCCCCCCCCC[N+](C)(C)CCOc1ccccc1.N#C[N-]C#N, the activity coefficient (328.15 K) was 7.69 ± 0.52; the activity coefficient (338.15 K) worked out at 7.83 ± 0.53; the activity coefficient (348.15 K) is 7.95 ± 0.54; the activity coefficient (358.15 K) is 8.08 ± 0.55; the activity coefficient (368.15 K) was found to be 8.21 ± 0.56; the activity coefficient (378.15 K) turned out to be 8.34 ± 0.57.
Take `Cc1cccc(C)c1` [1,3-dimethylbenzene] + CCCCCCCCCCCC[N+](C)(C)CCOc1ccccc1.O=S(=O)([N-]S(=O)(=O)C(F)(F)F)C(F)(F)F: the activity coefficient reads like this: (318.15 K) 0.847 ± 0.054; (328.15 K) 0.902 ± 0.057; (338.15 K) 0.957 ± 0.06; (348.15 K) 1.01 ± 0.06; (358.15 K) 1.07 ± 0.07; (368.15 K) 1.12 ± 0.07.
Turning to `CCCCCCC` [heptane] + CCCCCCCCCCCC[N+](C)(C)CCOc1ccccc1.O=S(=O)([N-]S(=O)(=O)C(F)(F)F)C(F)(F)F, the activity coefficient was 3.44 ± 0.23 (318.15 K); 3.52 ± 0.24 (328.15 K); 3.6 ± 0.25 (338.15 K); 3.68 ± 0.25 (348.15 K); 3.75 ± 0.26 (358.15 K); 3.83 ± 0.26 (368.15 K).
For `CC(C)O` [propan-2-ol] + CCCCCCCCCCCC[N+](C)(C)CCOc1ccccc1.N#C[N-]C#N, the activity coefficient reads like this: (328.15 K) 0.494 ± 0.038; (338.15 K) 0.504 ± 0.038; (348.15 K) 0.512 ± 0.038; (358.15 K) 0.52 ± 0.039; (368.15 K) 0.528 ± 0.039; (378.15 K) 0.535 ± 0.039.
As for `C#CCCCCC` [1-heptyne] + CCCCCCCCCCCC[N+](C)(C)CCOc1ccccc1.O=S(=O)([N-]S(=O)(=O)C(F)(F)F)C(F)(F)F, the activity coefficient by setting is: (318.15 K) 1.45 ± 0.1; (328.15 K) 1.53 ± 0.1; (338.15 K) 1.61 ± 0.11; (348.15 K) 1.68 ± 0.11; (358.15 K) 1.75 ± 0.12; (368.15 K) 1.83 ± 0.12.
For the molecule `CCOC(C)=O` [ethyl acetate] + CCCCCCCCCCCC[N+](C)(C)CCOc1ccccc1.N#C[N-]C#N, the activity coefficient by setting is: (328.15 K) 1.2 ± 0.08; (338.15 K) 1.24 ± 0.08; (348.15 K) 1.27 ± 0.08; (358.15 K) 1.31 ± 0.09; (368.15 K) 1.34 ± 0.09; (378.15 K) 1.37 ± 0.09.
Turning to `CC(C)(C)O` [2-methylpropan-2-ol] + CCCCCCCCCCCC[N+](C)(C)CCOc1ccccc1.N#C[N-]C#N, the activity coefficient by setting is: (328.15 K) 0.539 ± 0.039; (338.15 K) 0.554 ± 0.04; (348.15 K) 0.569 ± 0.041; (358.15 K) 0.584 ± 0.041; (368.15 K) 0.598 ± 0.042; (378.15 K) 0.613 ± 0.043.
For `CCC(C)CC` [3-methylpentane] + CCCCCCCCCCCC[N+](C)(C)CCOc1ccccc1.N#C[N-]C#N, the activity coefficient reads like this: (328.15 K) 5.3 ± 0.36; (338.15 K) 5.37 ± 0.37; (348.15 K) 5.41 ± 0.37; (358.15 K) 5.46 ± 0.37; (368.15 K) 5.5 ± 0.37; (378.15 K) 5.5 ± 0.37.
As to `CCCCCC` [hexane] + CCCCCCCCCCCC[N+](C)(C)CCOc1ccccc1.O=S(=O)([N-]S(=O)(=O)C(F)(F)F)C(F)(F)F, the activity coefficient was 2.91 ± 0.2 (318.15 K); 2.99 ± 0.2 (328.15 K); 3.06 ± 0.21 (338.15 K); 3.15 ± 0.21 (348.15 K); 3.21 ± 0.22 (358.15 K); 3.28 ± 0.22 (368.15 K).
Take `C1CCCCCC1` [cycloheptane] + CCCCCCCCCCCC[N+](C)(C)CCOc1ccccc1.O=S(=O)([N-]S(=O)(=O)C(F)(F)F)C(F)(F)F: the activity coefficient runs as follows: (318.15 K) 2.26 ± 0.15; (328.15 K) 2.3 ± 0.16; (338.15 K) 2.34 ± 0.16; (348.15 K) 2.37 ± 0.16; (358.15 K) 2.4 ± 0.16; (368.15 K) 2.43 ± 0.17.
`CCCCCCCC` [octane] + CCCCCCCCCCCC[N+](C)(C)CCOc1ccccc1.O=S(=O)([N-]S(=O)(=O)C(F)(F)F)C(F)(F)F: the activity coefficient reads like this: (318.15 K) 4.05 ± 0.28; (328.15 K) 4.14 ± 0.28; (338.15 K) 4.23 ± 0.29; (348.15 K) 4.32 ± 0.29; (358.15 K) 4.41 ± 0.3; (368.15 K) 4.5 ± 0.31.
Consider `CCCc1ccccc1` [propylbenzene] + CCCCCCCCCCCC[N+](C)(C)CCOc1ccccc1.O=S(=O)([N-]S(=O)(=O)C(F)(F)F)C(F)(F)F, for which the activity coefficient came to 1.09 ± 0.07 (318.15 K); 1.15 ± 0.07 (328.15 K); 1.2 ± 0.08 (338.15 K); 1.26 ± 0.08 (348.15 K); 1.32 ± 0.09 (358.15 K); 1.37 ± 0.09 (368.15 K).
